Our source for the EC50 and IC50 values is US9371331B2, “Modulators of methyl modifying enzymes, compositions and uses thereof” (Constellation Pharmaceuticals, Inc., priority 2012, dated 2016).

As usually defined, the EC50 is the concentration giving half of the maximal effect. As usually defined, the IC50 is the point on the concentration scale where inhibition reaches its midpoint.

The test system of experiment [1] is H3K27me3 mark in HeLa cells. The experiment can be described thus: H3K27me3 Alpha Hela Assay (AlphaLISA). The note with it: Homo sapiens, 72 hrs, read-out: H3K27me3_Alpha_HeLa_ (EC50). Format: cell-based. How it is done:
H3K27me3 Alpha Hela Assay (AlphaLISA).
Ten different doses of each test compound (in a series of 3-fold dilutions) were plated in duplicate 384-well tissue culture treated plates (Catalog #781080; Greiner Bio One; Monroe, N.C.). Hela cells grown in culture were trypsinized and counted using a Countess® cell counter (Catalog #C10281; Life Technologies, Grand Island, N.Y.). Cell were diluted to 67,000 cells per mL in 10% DMEM (Catalog #10569-010 Life Technologies. Grand Island, N.Y.) and 15 μL (1,000 cells) were plated into each well using the Biotek MicroFlo™ Select Dispenser (BioTek Instruments. Inc. Vermont, USA),) of the 384-well plate. Plates were incubated at 37° C./5% CO2 for 72 hrs. One of the duplicate plates was processed for HeLa assay and the other for viability.
To the plate processed for AlphaLISA was added 5 μL per well Cell-Histone Lysis buffer (1×) (Catalog #AL009F1 Perkin Elmer; Waltham, Mass.) and the plate was incubated at RT for 30 minutes on a plate shaker with low speed (Model#4625-Q Thermo Scientific; Waltham, Mass.). Then, 10 µL per well Histone Extraction buffer (catalog #AL009F2: Perkin Elmer; Waltham, Mass.) was added and the plate further incubated at RT for 20 min on plate shaker with low speed. To each well was then added 10 μL per well of a 5× mix of anti-K27me3 acceptor beads plus Biotinylated anti-Histone H3 (C-ter) Antibody (diluted to 3 nM final) (Catalog #AL118 Perkin Elmer; Waltham, Mass.). Dilution of the acceptor beads and then anti-Histone H3 was with 1× Histone Detection buffer (Catalog #AL009F3 Perkin Elmer; Waltham, Mass.) which was produced diluted from the 10× stock provided. The plate was sealed with an aluminum plate sealer and incubated at 23° C. for 60 min. We then added 10 μL 5× solution of Streptavidin Donor beads (Catalog #6760002 Perkin Elmer; Waltham, Mass.) (20 μg/mL final in 1× Histone Detection Buffer), sealed the plate with Aluminum plate sealer and incubated at 23° C. for 30 min. The plates were then read using an EnVision-Alpha Reader (model #2104 Perkin Elmer: Waltham, Mass.).
Data from both assays was analyzed using Assay Assistant (Constellation Pharmaceuticals In-house product) and Activity Base (IDBS Ltd. Surrey, UK) template. Data files were imported to Assay Assistant and assay conditions were specified. A unique Analysis ID was created and the data files exported to Activity Base. An analysis template was created on Activity Base to measure dose-dependent inhibition of H3K27me3 mark and cell viability respectively. Readout of DMSO wells were used to normalize the data. Resulting curves were fitted using Activity base software Model 205 (IDBS Ltd, Surrey, UK). The data was checked for quality, validated and integrated in excel format using SARview (IDBS Ltd, Surrey, UK).

For a further experiment, the target named is Y641N EZH2 (Homo sapiens, UniProt Q15910, Y641N). Description: Y641N EZH2 assay: as EZH2 assay, with reconstituted H3K27Me2 oligonucleosomes as substrate. Format: biochemical.
In another experiment the target is EZH2 (rPRC2) (Homo sapiens, UniProt Q15910). The experiment can be described thus: EZH2 assay: rPRC2, biotinylated oligonucleosomes, 3H SAM methyl transfer (FlashPlate scintillation). Format: biochemical. The note with it: biotinylated oligonucleosome substrate.
Where [2] appears, read: Y641N EZH2 IC50, Y641N mutant EZH2, H3K27Me2 oligonucleosome substrate.
The mark [3] stands for this setting: EZH2 IC50, wild-type EZH2 (rPRC2).
Where [4] appears, read: Y641N mutant EZH2, H3K27Me2 oligonucleosome substrate, read-out: Y641N EZH2 IC50.
Where [5] appears, read: wild-type EZH2 (rPRC2), read-out: EZH2 IC50.

Read-outs that look alike come from different tables or passages of the source.

Chain of Y641N EZH2 (Q15910 whole entry Y641N): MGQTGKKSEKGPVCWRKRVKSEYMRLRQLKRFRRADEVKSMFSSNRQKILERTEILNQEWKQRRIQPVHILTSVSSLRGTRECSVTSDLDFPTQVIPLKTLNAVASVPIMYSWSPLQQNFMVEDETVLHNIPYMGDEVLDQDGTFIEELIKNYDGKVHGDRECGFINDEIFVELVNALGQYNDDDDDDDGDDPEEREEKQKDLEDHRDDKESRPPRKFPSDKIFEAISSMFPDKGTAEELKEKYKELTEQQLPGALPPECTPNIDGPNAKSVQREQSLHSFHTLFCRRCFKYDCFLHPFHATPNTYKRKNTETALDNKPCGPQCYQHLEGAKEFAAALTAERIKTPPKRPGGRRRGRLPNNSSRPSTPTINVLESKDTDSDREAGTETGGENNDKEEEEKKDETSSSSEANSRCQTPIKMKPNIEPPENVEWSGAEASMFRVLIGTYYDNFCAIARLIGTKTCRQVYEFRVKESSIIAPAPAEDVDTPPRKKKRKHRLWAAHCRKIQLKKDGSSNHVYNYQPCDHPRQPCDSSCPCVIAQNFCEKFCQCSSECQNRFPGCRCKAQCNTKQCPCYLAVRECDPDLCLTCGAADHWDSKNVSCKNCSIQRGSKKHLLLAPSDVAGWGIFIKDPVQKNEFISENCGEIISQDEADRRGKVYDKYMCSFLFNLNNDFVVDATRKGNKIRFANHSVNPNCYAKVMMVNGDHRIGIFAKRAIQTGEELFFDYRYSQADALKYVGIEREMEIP
Chain of Y641N EZH2 (O75530 whole entry partner): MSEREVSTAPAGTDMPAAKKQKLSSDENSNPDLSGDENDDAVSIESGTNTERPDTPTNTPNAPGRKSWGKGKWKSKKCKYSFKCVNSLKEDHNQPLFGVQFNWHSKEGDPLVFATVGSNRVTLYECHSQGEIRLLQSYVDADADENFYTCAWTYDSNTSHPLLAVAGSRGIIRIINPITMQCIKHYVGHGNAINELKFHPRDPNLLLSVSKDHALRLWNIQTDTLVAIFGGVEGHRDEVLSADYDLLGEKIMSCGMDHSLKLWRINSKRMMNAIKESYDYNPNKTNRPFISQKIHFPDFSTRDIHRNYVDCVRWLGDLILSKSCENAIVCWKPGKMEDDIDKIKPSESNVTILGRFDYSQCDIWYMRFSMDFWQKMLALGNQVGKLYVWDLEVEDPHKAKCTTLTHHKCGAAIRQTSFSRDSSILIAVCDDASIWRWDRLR
Chain of Y641N EZH2 (Q15022 whole entry partner): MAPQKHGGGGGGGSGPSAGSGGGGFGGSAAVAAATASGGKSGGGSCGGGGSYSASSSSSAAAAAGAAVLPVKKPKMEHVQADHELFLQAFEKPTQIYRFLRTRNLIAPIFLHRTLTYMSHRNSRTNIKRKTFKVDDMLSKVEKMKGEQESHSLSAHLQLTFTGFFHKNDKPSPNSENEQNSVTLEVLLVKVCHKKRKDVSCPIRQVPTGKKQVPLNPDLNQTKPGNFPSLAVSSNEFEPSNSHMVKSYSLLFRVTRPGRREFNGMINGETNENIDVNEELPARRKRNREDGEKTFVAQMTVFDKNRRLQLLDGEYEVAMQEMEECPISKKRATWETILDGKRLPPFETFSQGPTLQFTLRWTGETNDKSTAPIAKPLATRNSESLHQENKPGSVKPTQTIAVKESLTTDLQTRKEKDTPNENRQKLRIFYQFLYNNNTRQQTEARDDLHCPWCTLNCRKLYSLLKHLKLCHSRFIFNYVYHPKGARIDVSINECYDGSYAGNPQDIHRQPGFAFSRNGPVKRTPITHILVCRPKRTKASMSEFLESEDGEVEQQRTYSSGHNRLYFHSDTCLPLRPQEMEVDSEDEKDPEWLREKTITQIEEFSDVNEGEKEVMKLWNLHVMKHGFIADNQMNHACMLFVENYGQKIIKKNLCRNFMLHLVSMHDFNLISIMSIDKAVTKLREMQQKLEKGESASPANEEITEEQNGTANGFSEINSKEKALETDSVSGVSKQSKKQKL
Chain of EZH2 (rPRC2) (Q15910 whole entry): as the sequence (Q15910 whole entry Y641N) above, with N641Y counted along it
Chain of EZH2 (rPRC2) (O75530 whole entry partner): as the sequence (O75530 whole entry partner) above
Chain of EZH2 (rPRC2) (Q15022 whole entry partner): as the sequence (Q15022 whole entry partner) above

`COc1cc(C)[nH]c(=O)c1CNC(=O)c1c(C)n(C(C)C2CCN(CCO)CC2)c2ccccc12` (single isomer, unassigned) [Compound 347, (R or S)-1-(1-(1-(2-hydroxyethyl)piperidin-4-yl)ethyl)-N-((4-methoxy-6-methyl-2-oxo-1,2-dihydropyridin-3-yl)methyl)-2-methyl-1H-indole-3-carboxamide]: the EC50 in experiment [1] lay within 400 to 2000 nM. Further, the IC50 against Y641N EZH2 (setting [2]) and against EZH2 (rPRC2) (setting [3]) was less than 100 nM each time.

As for `COc1cc(C)[nH]c(=O)c1CNC(=O)c1c(C)n(C(C)C2CCN(CC(C)(C)O)CC2)c2ccccc12` (single isomer, unassigned) [Compound 352, (R or S)-1-(1-(1-(2-hydroxy-2-methylpropyl)piperidin-4-yl)ethyl)-N-((4-methoxy-6-methyl-2-oxo-1,2-dihydropyridin-3-yl)methyl)-2-methyl-1H-indole-3-carboxamide], in experiment [1], the EC50 is 400 to 2000 nM. For the same compound, the IC50 against Y641N EZH2 (setting [2]) and at EZH2 (rPRC2) (setting [3]) was less than 100 nM in each case.

For `COc1cc(C)[nH]c(=O)c1CNC(=O)c1c(C)n(C(C)C2CCC(S(=O)(=O)C(C)C)CC2)c2ccccc12` (single isomer, unassigned) [Compound 355, (R or S)-1-(1-(4-(isopropylsulfonyl)cyclohexyl)ethyl)-N-((4-methoxy-6-methyl-2-oxo-1,2-dihydropyridin-3-yl)methyl)-2-methyl-1 H-indole-3-carboxamide], the EC50 in experiment [1] is less than 400 nM. Further, the IC50 against Y641N EZH2 (setting [2]) and against EZH2 (rPRC2) (setting [3]) was less than 100 nM each time.

With `COc1cc(C)[nH]c(=O)c1CNC(=O)c1c(C)n(C(C)C2CCN(CCF)CC2)c2ccccc12` (single isomer, unassigned) [Compound 356, (R or S)-1-(1-(1-(2-fluoroethyl)piperidin-4-yl)ethyl)-N-((4-methoxy-6-methyl-2-oxo-1,2-dihydropyridin-3-yl)methyl-2-methyl-1H-indole-3-carboxamide], the EC50 in experiment [1] is less than 400 nM. The IC50 at Y641N EZH2 (setting [2]) and at EZH2 (rPRC2) (setting [3]) was less than 100 nM throughout.

Consider `COc1cc(C)[nH]c(=O)c1CNC(=O)c1c(C)n(C(C)C2CCN(C(=O)OCC(C)C)CC2)c2ccccc12` (single isomer, unassigned) [Compound 357, (R or S)-isobutyl 4-(1-(3-(((4-methoxy-6-methyl-2-oxo-1,2-dihydropyridin-3-yl)methyl)carbamoyl)-2-methyl-1 H-indol-1-yl)ethyl)piperidine-1-carboxylate], for which, in experiment [1], the EC50 is less than 400 nM. In addition, the IC50 at Y641N EZH2 (setting [2]) and on EZH2 (rPRC2) (setting [3]) was less than 100 nM each time.

`COc1cc(C)[nH]c(=O)c1CNC(=O)c1c(C)n(C(C)C2CCN(C(C)C)CC2)c2ccccc12` (single isomer, unassigned) [Compound 358, (R or S)-1-(1-(1-isopropylpiperidin-4-yl)ethyl)-N-((4-methoxy-6-methyl-2-oxo-1,2-dihydropyridin-3-yl)methyl)-2-methyl-1H-indole-3-carboxamide]: in experiment [1], the EC50 was 400 to 2000 nM. In addition, the IC50 at Y641N EZH2 (setting [2]) and on EZH2 (rPRC2) (setting [3]) was less than 100 nM each time.

On to `CCN1CCC(C(C)n2c(C)c(C(=O)NCc3c(OC)cc(C)[nH]c3=O)c3ccccc32)CC1` (single isomer, unassigned) [Compound 360, (R or S)-1-(1-(1-ethylpiperidin-4-yl)ethyl)-N-((4-methoxy-6-methyl-2-oxo-1,2-dihydropyridin-3-yl)methyl)-2-methyl-1 H-indole-3carboxamide], for which, in experiment [1], the EC50 was in the range of 2000 to 10000 nM. For the same compound, the IC50 at Y641N EZH2 (setting [2]) and on EZH2 (rPRC2) (setting [3]) was less than 100 nM in each case.

In the case of `COc1cc(C)[nH]c(=O)c1CNC(=O)c1c(C)n(C(C)C2CCN(c3ncccn3)CC2)c2ccccc12` (single isomer, unassigned) [Compound 361, (R or S)—N-((4-methoxy-6-methyl-2-oxo-1,2-dihydropyridin-3-yl)methyl)-2-methyl-1-(1-1-(pyrimidin-2-yl)piperidin-4-yl)ethyl)-1H-indole-3-carboxamide], the EC50 in experiment [1] is less than 400 nM. Further, the IC50 on Y641N EZH2 (setting [2]) and at EZH2 (rPRC2) (setting [3]) was less than 100 nM in each case.

In the case of `COc1cc(C)[nH]c(=O)c1CNC(=O)c1c(C)n(C(C)C2CCN(CC(F)F)CC2)c2ccccc12` (single isomer, unassigned) [Compound 362, (R or S)-1-(1-(1-(2,2-difluoroethyl)piperidin-4-yl)ethyl)-N-((4-methoxy-6-methyl-2-oxo-1,2-dihydropyridin-3-yl)methyl)-2-methyl-1H-indole-3-carboxamide], the EC50 in experiment [1] is less than 400 nM. In addition, the IC50 at Y641N EZH2 (setting [2]) and against EZH2 (rPRC2) (setting [3]) was less than 100 nM throughout.

As for `CCOC(=O)CN1CCC(C(C)n2c(C)c(C(=O)NCc3c(OC)cc(C)[nH]c3=O)c3ccccc32)CC1` (single isomer, unassigned) [Compound 363, (R or S)-ethyl 2-(4-(1-(3-(((4-methoxy-6-methyl-2-oxo-1,2-dihydropyridin-3-yl)methyl)carbamoyl)-2-methyl-1 H-indol-1-yl)ethyl)piperidin-1-yl)acetate], in experiment [1], the EC50 was less than 400 nM. The IC50 at Y641N EZH2 (setting [2]) and at EZH2 (rPRC2) (setting [3]) was less than 100 nM throughout.

Turning to `Cc1cc(C)c(CNC(=O)c2c(C)n(C(C)C3CCN(CC(C)(C)O)CC3)c3ccccc23)c(=O)[nH]1` (single isomer, unassigned) [Compound 369, (R or S)-N-((4,6-dimethyl-2-oxo-1,2-dihydropyridin-3-yl)methyl)-1-(1-(1-(2-hydroxy-2-methylpropyl)piperidin-4-yl)ethyl)-2-methyl-1H-indole-3-carboxamide], the EC50 in experiment [1] is less than 400 nM. Besides, the IC50 at Y641N EZH2 (setting [2]) and on EZH2 (rPRC2) (setting [3]) was less than 100 nM in each case.

On to `COc1cc(C)[nH]c(=O)c1CNC(=O)c1c(C)n(C(C)C2CCN(c3ccccn3)CC2)c2ccccc12` (single isomer, unassigned) [Compound 373], for which the EC50 in experiment [1] is less than 400 nM. Besides, the IC50 against Y641N EZH2 (setting [2]) and on EZH2 (rPRC2) (setting [3]) was less than 100 nM in each case.

Consider `COc1cc(C)[nH]c(=O)c1CNC(=O)c1c(C)n(C(C)C2CCOCC2)c2cc(-c3ccccc3)ccc12` (single isomer, unassigned) [Compound 374, (R or S)—N-((4-methoxy-6-methyl-2-oxo-1,2-dihydropyridin-3-yl)methyl)-2-methyl-6-phenyl-1-(1-(tetrahydro-2H-pyran-4-yl)ethyl)-1H-indole-3-carboxamide], for which the EC50 in experiment [1] is less than 400 nM. Further, the IC50 against Y641N EZH2 (setting [2]) and on EZH2 (rPRC2) (setting [3]) was less than 100 nM in each case.

For the compound `Cc1cc(C)c(CNC(=O)c2c(C)n(C(C)C3CCN(C4CN(C)C4)CC3)c3ccccc23)c(=O)[nH]1` (single isomer, unassigned) [Compound 377, (R or S)-N-((4,6-dimethyl-2-oxo-1,2-dihydropyridin-3-yl)methyl)-2-methyl-1(1-(1-(1-methylazetidin-3-yl)piperidin-4-yl)ethyl)-1 H-indole-3-carboxamide], the EC50 in experiment [1] was 400 to 2000 nM. The IC50 against Y641N EZH2 (setting [2]) and at EZH2 (rPRC2) (setting [3]) was less than 100 nM each time.

As to `COc1cc(C)[nH]c(=O)c1CNC(=O)c1c(C)n(-c2cccc3ncccc23)c2ccccc12` [Compound 330, N-((4-methoxy-6-methyl-2-oxo-1,2-dihydropyridin-3-yl)methyl)-2-methyl-1-(quinolin-5-yl)-1H-indole-3-carboxamide], the EC50 in experiment [1] lay within 400 to 2000 nM. Further, the IC50 at Y641N EZH2 (setting [4]) and at EZH2 (rPRC2) (setting [5]) was less than 100 nM throughout.

Consider `COc1cc(C)[nH]c(=O)c1CNC(=O)c1c(C)n(C(C)C2CCN(C(=O)OC(C)(C)C)CC2)c2ncncc12` (stereo not drawn) [Compound 332, tert-butyl 4-(1-(5-(((4-methoxy-6-methyl-2-oxo-1,2-dihydropyridin-3-yl)methyl)carbamoyl)-6-methyl-7H-pyrrolo[2,3-d]pyrimidin-7-yl)ethyl)piperidine-1-carboxylate], for which, in experiment [1], the EC50 is 400 to 2000 nM. For the same compound, the IC50 at Y641N EZH2 (setting [4]) and at EZH2 (rPRC2) (setting [5]) was less than 100 nM throughout.
